Assay type in all cases: biochemical
One assay has as its target HDAC 1 (Homo sapiens, UniProt Q13547). The experiment in a line: enzymatic inhibition of HDAC 1. The note with it: HDAC 1, Class I. An excerpt: (§1) The mammalian HDACs can be divided into four classes depending on their sequence homology, sub-cellular distribution and catalytic activity. Class I, Il and IV HDACs have a Zn^2+ cofactor in the catalytic site. Class III HDACs contain sirtuins 1-7 and are NAD^+-dependent. Class I (HDACs 1, 2, 3 and 8) share the same homology as Rpd3 and are preliminarily distributed in the nucleus of normal cells. Class II HDACs can be subdivided into class IIa HDACs and class Ilb HDACs. Class IIa enzymes (HDAC 4, 5, 7 and 9) shuttle between the nucleus and cytoplasm and are located in specific tissues such as the brain, heart, and muscle. Class IIb (HDACs 6 and 10) are chiefly located in the cytoplasm.

A further assay deals with HDAC 2 (Homo sapiens, UniProt Q92769). Description: enzymatic inhibition of HDAC 2. The note with it: HDAC 2, Class I.
Excerpt: as §1

The next assay deals with HDAC 3 (Homo sapiens, UniProt O15379). The experiment in a line: enzymatic inhibition of HDAC 3. As to conditions: HDAC 3, Class I.
Excerpt: as §1

The next assay addresses HDAC 8 (Homo sapiens, UniProt Q9BY41). The experiment in a line: enzymatic inhibition of HDAC 8. As to conditions: HDAC 8, Class I; read-out: IC50.
Excerpt: as §1

For a further assay, the target named is HDAC 4 (Homo sapiens, UniProt P56524). Description: enzymatic inhibition of HDAC 4. The note with it: HDAC 4, Class IIa; read-out: IC50.
Excerpt: as §1

The next assay addresses HDAC 5 (Homo sapiens, UniProt Q9UQL6). The experiment in a line: enzymatic inhibition of HDAC 5. As to conditions: HDAC 5, Class IIa; read-out: IC50.
Excerpt: as §1

The target of the next assay is HDAC 7 (Homo sapiens, UniProt Q8WUI4). The experiment in a line: enzymatic inhibition of HDAC 7. As to conditions: HDAC 7, Class IIa; read-out: IC50.
Excerpt: as §1

Another assay deals with HDAC 9 (Homo sapiens, UniProt Q9UKV0). The experiment in a line: enzymatic inhibition of HDAC 9. The note with it: HDAC 9, Class IIa; read-out: IC50.
Excerpt: as §1

Another assay deals with HDAC 6 (Homo sapiens, UniProt Q9UBN7). The experiment in a line: enzymatic inhibition of HDAC 6. The note with it: HDAC 6, Class IIb; read-out: IC50.
Excerpt: as §1

For the next assay, the target named is HDAC 10 (Homo sapiens, UniProt Q969S8). The experiment in a line: enzymatic inhibition of HDAC 10. As to conditions: HDAC 10, Class IIb.
Excerpt: as §1

Another assay has as its target HDAC 11 (Homo sapiens, UniProt Q96DB2). The experiment in a line: enzymatic inhibition of HDAC 11. As to conditions: HDAC 11, Class IV.
Excerpt: as §1

In another assay the test system is Class I HDAC. Description: enzymatic inhibition of Class I HDACs (summary). The note with it: in words.
Excerpt: as §1

For orientation: pIC50 means the negative decadic logarithm of the IC50, by convention in mol/L.

pIC50: −log10 of the molar value.

Sequence of HDAC 8 (Q9BY41 whole entry): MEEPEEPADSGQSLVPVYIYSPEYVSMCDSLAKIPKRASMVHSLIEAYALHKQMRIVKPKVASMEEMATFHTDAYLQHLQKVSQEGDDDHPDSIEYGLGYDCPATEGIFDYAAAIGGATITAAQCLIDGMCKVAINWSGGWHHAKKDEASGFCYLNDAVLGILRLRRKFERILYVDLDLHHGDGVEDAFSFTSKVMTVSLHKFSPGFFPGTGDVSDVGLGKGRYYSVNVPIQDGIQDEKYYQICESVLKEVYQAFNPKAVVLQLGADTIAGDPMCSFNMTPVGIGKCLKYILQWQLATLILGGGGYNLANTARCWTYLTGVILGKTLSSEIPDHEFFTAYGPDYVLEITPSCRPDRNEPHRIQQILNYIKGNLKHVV
Sequence of HDAC 5 (Q9UQL6 whole entry): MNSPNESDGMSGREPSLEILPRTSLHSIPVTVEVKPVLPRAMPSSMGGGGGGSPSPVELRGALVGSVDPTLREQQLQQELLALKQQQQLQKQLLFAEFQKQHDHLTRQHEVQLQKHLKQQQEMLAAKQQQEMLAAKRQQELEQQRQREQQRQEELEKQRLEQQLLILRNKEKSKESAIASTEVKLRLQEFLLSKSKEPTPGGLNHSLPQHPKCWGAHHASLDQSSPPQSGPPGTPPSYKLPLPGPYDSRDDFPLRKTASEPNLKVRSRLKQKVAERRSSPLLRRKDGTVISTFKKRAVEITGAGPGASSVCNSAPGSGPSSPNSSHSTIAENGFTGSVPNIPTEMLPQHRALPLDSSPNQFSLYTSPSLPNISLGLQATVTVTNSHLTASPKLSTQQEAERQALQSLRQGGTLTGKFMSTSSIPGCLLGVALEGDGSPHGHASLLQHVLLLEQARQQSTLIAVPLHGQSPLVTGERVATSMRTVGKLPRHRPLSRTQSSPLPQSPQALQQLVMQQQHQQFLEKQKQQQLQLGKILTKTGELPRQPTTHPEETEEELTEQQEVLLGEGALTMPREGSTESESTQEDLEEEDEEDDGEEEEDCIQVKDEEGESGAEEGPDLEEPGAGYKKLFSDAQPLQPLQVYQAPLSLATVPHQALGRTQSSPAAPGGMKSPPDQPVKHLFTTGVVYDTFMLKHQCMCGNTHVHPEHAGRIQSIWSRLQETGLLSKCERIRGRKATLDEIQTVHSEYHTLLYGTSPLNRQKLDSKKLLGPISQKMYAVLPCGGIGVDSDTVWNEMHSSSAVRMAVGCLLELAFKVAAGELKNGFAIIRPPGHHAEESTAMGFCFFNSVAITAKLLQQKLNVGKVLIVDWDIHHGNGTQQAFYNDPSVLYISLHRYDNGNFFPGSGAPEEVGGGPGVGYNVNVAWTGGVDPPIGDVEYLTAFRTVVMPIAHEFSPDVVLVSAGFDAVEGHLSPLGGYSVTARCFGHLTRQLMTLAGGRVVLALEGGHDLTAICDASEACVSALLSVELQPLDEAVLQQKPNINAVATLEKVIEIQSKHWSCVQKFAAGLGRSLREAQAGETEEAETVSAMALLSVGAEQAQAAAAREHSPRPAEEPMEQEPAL
Sequence of HDAC 7 (Q8WUI4 whole entry): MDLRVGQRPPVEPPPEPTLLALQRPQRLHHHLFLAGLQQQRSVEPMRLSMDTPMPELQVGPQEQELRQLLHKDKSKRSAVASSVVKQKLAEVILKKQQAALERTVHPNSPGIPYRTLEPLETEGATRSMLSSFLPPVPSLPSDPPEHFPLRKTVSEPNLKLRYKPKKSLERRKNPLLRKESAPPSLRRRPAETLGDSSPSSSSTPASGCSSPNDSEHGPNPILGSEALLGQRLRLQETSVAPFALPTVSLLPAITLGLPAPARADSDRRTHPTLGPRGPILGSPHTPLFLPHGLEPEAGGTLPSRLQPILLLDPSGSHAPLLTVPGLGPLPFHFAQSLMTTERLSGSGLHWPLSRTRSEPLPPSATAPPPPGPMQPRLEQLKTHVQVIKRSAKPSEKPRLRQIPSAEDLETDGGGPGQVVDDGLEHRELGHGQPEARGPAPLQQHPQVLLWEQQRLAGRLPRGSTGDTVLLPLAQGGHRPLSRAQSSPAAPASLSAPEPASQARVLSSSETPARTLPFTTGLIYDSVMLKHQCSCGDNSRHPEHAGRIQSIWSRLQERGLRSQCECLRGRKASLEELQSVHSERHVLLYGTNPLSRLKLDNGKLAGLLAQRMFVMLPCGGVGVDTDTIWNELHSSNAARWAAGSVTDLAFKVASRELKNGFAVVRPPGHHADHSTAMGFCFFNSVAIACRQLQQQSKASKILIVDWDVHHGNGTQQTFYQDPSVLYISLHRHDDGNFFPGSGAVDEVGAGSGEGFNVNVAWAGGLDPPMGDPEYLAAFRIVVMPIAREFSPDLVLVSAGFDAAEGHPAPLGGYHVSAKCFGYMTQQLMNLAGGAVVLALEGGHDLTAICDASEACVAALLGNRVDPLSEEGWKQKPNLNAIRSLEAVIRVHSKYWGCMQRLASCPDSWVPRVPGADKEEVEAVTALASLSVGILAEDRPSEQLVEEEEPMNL
Sequence of HDAC 3 (O15379 whole entry): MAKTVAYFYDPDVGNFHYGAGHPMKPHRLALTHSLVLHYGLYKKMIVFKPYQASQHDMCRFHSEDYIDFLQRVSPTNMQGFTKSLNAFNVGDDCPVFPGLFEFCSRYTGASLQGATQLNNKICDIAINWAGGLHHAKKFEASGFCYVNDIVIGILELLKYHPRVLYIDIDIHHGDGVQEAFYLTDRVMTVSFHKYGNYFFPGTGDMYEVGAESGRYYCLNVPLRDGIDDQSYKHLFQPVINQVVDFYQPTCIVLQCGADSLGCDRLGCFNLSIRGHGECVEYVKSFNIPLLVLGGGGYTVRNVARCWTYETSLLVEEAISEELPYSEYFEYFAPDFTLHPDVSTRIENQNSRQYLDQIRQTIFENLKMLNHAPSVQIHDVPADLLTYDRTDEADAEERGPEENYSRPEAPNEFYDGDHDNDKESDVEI
Sequence of HDAC 3 (Q9Y618 395-489 partner limits assumed): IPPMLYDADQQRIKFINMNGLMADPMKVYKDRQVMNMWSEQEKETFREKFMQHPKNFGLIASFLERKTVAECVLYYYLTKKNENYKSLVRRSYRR
Sequence of HDAC 2 (Q92769 whole entry): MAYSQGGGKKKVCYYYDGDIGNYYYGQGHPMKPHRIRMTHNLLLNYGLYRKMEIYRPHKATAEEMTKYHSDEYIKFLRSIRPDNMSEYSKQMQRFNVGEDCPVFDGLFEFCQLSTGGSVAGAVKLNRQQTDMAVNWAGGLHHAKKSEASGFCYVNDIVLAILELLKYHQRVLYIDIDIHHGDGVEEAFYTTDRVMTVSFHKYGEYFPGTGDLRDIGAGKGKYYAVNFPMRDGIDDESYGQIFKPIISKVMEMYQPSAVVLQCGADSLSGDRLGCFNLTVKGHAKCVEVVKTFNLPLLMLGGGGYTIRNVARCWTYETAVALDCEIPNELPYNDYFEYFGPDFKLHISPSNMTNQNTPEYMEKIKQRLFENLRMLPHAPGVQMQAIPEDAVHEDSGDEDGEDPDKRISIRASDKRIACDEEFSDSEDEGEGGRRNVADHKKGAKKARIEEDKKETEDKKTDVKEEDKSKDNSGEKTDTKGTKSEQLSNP
Sequence of HDAC 4 (P56524 whole entry): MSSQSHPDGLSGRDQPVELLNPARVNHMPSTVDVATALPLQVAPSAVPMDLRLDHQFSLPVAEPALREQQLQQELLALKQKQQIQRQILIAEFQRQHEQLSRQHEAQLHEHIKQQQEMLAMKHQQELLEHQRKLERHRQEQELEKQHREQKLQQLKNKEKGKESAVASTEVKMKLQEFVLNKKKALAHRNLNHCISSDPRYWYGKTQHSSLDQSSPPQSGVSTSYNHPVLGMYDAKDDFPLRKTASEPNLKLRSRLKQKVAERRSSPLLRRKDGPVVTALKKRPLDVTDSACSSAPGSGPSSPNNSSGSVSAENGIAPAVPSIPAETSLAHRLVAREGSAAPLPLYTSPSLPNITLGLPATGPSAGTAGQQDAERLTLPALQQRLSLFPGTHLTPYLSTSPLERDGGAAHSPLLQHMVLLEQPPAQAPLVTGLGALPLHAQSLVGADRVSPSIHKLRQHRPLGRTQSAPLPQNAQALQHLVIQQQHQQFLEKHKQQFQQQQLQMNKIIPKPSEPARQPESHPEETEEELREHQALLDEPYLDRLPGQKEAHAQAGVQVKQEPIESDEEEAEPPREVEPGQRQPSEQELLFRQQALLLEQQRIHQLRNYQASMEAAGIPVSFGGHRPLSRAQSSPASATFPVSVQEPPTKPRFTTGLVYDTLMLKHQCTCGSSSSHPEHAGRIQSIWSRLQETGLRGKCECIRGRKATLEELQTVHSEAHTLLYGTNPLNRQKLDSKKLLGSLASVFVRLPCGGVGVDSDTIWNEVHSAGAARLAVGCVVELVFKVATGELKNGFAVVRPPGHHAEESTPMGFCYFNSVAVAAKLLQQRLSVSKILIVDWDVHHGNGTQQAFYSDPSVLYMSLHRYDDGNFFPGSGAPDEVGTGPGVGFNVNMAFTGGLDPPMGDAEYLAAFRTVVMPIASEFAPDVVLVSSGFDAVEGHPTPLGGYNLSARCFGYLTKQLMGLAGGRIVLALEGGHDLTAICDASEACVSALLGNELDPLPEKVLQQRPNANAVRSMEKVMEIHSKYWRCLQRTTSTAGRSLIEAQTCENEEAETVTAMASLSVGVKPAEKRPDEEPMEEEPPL
Sequence of HDAC 11 (Q96DB2 whole entry): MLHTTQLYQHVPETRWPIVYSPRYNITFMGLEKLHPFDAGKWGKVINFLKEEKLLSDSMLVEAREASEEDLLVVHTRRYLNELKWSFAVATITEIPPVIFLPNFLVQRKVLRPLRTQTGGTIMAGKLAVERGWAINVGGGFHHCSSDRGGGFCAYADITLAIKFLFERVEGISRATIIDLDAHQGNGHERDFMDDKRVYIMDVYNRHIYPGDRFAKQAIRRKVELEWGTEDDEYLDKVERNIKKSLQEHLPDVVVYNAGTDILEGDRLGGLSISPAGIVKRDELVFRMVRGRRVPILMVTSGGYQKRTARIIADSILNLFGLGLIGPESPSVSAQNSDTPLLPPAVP

On to `CC(C)[C@@H]1NC(=O)C(C)(C)NC(=O)c2csc(n2)CNC(=O)C[C@@H](/C=C/CCS)OC1=O` [OKI-006], for which the pIC50 is 8.92 against HDAC 1; 8.62 against HDAC 2; 8.70 on HDAC 3; 7.31 on HDAC 8; below 6.00 on HDAC 4; below 6.00 on HDAC 5. Also, the pIC50 at HDAC 7 was below 6.00; at HDAC 9, below 6.00; on HDAC 6 it was 7.33; at HDAC 10 it was 8.55; against HDAC 11 it was 8.64. Also, in the assay with Class I HDAC, the “potency / selectivity for Class I HDAC” value is “high potency for Class I HDAC inhibitors”.

The record behind these values is patent US20260355274A1 (Onkure, Inc., priority 2022, published 2026).
